Test results as given in US11779585B2 (priority 2020, dated 2023).
“And” between values parts separate entries of the source, which are not always exact repeats. Equal values may be shown once. Read-outs that look alike come from different tables or passages of the source.

Tests used:
[1] = Mice, cited from earlier work
SARS-CoV-2 [2] = assay: SARS-CoV-2 infection of VeroE6 cells, 48 hours, MOI 0.012; assay type: cell-based
[3] = Rats, cited from earlier work
SARS-CoV-2 [4] = assay: SARS-CoV-2 infection of Calu3 human lung cells, 72 hours, MOI 2; assay type: cell-based; conditions: Severe acute respiratory syndrome coronavirus 2, Calu-3, read-out: Efficacy IC90
MERS-CoV Jordan virus = assay type: cell-based; conditions: at a concentration of 0.1 μM, FIG. 1
[5] = cited from earlier work
[6] = African green monkeys, 1.6 mg/kg × 14 days, total dose 22.4; cited from earlier work
[7] = cited from earlier work; remark: listed apart in the source
[8] = Dogs, cited from earlier work
SARS-CoV2 = assay: microbe, parasite or virus in culture; assay type: cell-based, SARS-CoV-2; conditions: for inhibition at 0.075 µM: Severe acute respiratory syndrome coronavirus 2, Vero C1008, 0.075 μM; for inhibition at 0.15 µM: Severe acute respiratory syndrome coronavirus 2, Vero C1008, 0.15 μM; for inhibition at 0.3 µM: Severe acute respiratory syndrome coronavirus 2, Vero C1008, 0.3 μM; for inhibition at 0.6 µM: Severe acute respiratory syndrome coronavirus 2, Vero C1008, 0.6 μM
[9] = 0.15 μM, title MOI 0.6 (text MOI 1.3), Plate 1
[10] = 0.3 μM, title MOI 0.6 (text MOI 1.3), Plate 1
[11] = title MOI 0.6 (text MOI 1.3), Plate 1
[12] = title MOI 0.6 (text MOI 1.3), Plate 2

## NC(=O)c1cn([C@@H]2O[C@H](CO)[C@@H](O)[C@H]2O)c2ncnc(N)c12 [Oya1, 4-amino-7-((2R,3R,4S,5R)-3,4-dihydroxy-5-(hydroxymethyl)tetrahydrofuran-2-yl)-7H-pyrrolo[2,3-d]pyrimidine-5-carboxamide]
[1]; × 9 days
  LD50, multi dose: 0.5 × 9 days mg/kg
[1]
  LD50, single dose: 4 mg/kg
  LD50, total dose (multi dose): 4.5 mg/kg
SARS-CoV-2 [2]; Severe acute respiratory syndrome coronavirus 2, Vero C1008, VeroE6, read-out: Efficacy IC90
  IC90: 55 nM and 0.017 µg/mL
SARS-CoV-2 [2]; cells with highest infection rate (FIGS. 17A-17B: VeroE6, Calu3)
  fold more effective against SARS-CoV-2 than Remdesivir: > 47 fold
Vero E6 cells; 0.0047 μM, MOI 0.6, Plate 1
  Cytotoxicity: −3.314% and −2.167% and −3.385%
Vero E6 cells; 0.0047 μM, MOI 0.6, Plate 2
  Cytotoxicity: −3.314% and −2.167% and −3.385%
Vero E6 cells; 0.0094 μM, MOI 0.6, Plate 1
  Cytotoxicity: −0.2353% and −1.9307% and −0.5813%
Vero E6 cells; 0.0094 μM, MOI 0.6, Plate 2
  Cytotoxicity: −0.2353% and −1.9307% and −0.5813%
Vero E6 cells; 0.0188 μM, MOI 0.6, Plate 1
  Cytotoxicity: −0.5761% and 5.048% and 2.474%
Vero E6 cells; 0.0188 μM, MOI 0.6, Plate 2
  Cytotoxicity: −0.5761% and 5.048% and 2.474%
Vero E6 cells; 0.0375 μM, MOI 0.6, Plate 1
  Cytotoxicity: 14.23% and 14.79% and 16.69%
Vero E6 cells; 0.0375 μM, MOI 0.6, Plate 2
  Cytotoxicity: 14.23% and 14.79% and 16.69%
Vero E6 cells; 0.075 μM, MOI 0.6, Plate 1
  Cytotoxicity: 29.56% and 33.64% and 33.6%
Vero E6 cells; 0.075 μM, MOI 0.6, Plate 2
  Cytotoxicity: 29.56% and 33.64% and 33.6%
Vero E6 cells; 0.15 μM, MOI 0.6, Plate 1
  Cytotoxicity: 49.52% and 51.36% and 51.37%
Vero E6 cells; 0.15 μM, MOI 0.6, Plate 2
  Cytotoxicity: 49.52% and 51.36% and 51.37%
Vero E6 cells; [9]
  Cytotoxicity: 49.52% and 51.36% and 51.37%
Vero E6 cells; 0.3 μM, MOI 0.6, Plate 1
  Cytotoxicity: 66.57% and 64.56% and 64.1314%
Vero E6 cells; 0.3 μM, MOI 0.6, Plate 2
  Cytotoxicity: 66.57% and 64.56% and 64.1314%
Vero E6 cells; [10]
  Cytotoxicity: 66.57%
Vero E6 cells; 0.6 μM, MOI 0.6, Plate 1
  Cytotoxicity: 79.78% and 76.76% and 75.88%
Vero E6 cells; 0.6 μM, MOI 0.6, Plate 2
  Cytotoxicity: 79.78% and 76.76% and 75.88%
Vero E6 cells; 8 tests against SARS-CoV-2
  toxicity margin or selectivity index, high: 8.2
  toxicity margin or selectivity index, low: 3.1
Vero E6 cells; 8 tests against SARS-CoV-2, average
  average toxicity margin or selectivity index: 4.8
[3]; × 24 days
  LD50, multi dose: 0.05 × 24 days mg/kg
[3]
  LD50, single dose: 1.2 mg/kg
  LD50, total dose (multi dose): 1.2 mg/kg
SARS-CoV-2 [4]
  IC90: 180 nM and 0.056 µg/mL
MERS-CoV Jordan virus
  inhibition of the MERS-CoV RNA polymerase: approximately 100%
[5]; Phase I clinical trials, humans
  anti-cancer activity: inactive against cancer
[5]; Phase I clinical trials
  tolerability in humans: well tolerated
[5]; daily dosing × 41
  Reported Safe Clinical Dosing: 0.12 mg/kg/day × 41
[5]; humans, Cavins 1967
  MTD (not reached at highest single dose tested): > 0.3 mg/kg
[5]; humans, daily, highest dosing regimen 120 μg/kg/day × 41 days
  Observed toxic effect: 0
[5]; humans, thrice weekly, highest dosing regimen 50-250 μg/kg/day × 45 days
  Observed toxic effect: 0
[5]; humans, weekly, highest dosing regimen 200 μg/kg/day × 150 days
  Observed toxic effect: 0
[6]
  Effect: lethal
[7]; Mice
  half-life in blood: 50 h
[7]; mice, following 12 days post injection
  cleared: 40%
[8]; × 14 days
  LD50, multi dose: 0.3 × 14 days mg/kg
[8]
  LD50, single dose: 2.5 mg/kg
  LD50, total dose (multi dose): 4.2 mg/kg
SARS-CoV2
  fold increase in activity over chlorpromazine HCl: 1000 fold
SARS-CoV2; 0.0047 μM, MOI 0.6, Plate 2
  Inhibition: 1.733% and −3.975% and 4.262%
SARS-CoV2; 0.0047 μM, title MOI 0.6 (text MOI 1.3), Plate 2
  Inhibition: −0.7543% and −8.894% and 0.3653%
SARS-CoV2; 0.0094 μM, MOI 0.2, Plate 1
  Inhibition: 24.36% and 12.99%
SARS-CoV2; 0.0094 μM, MOI 0.4, Plate 1
  Inhibition: 9.365% and 6.857% and 1.875%
SARS-CoV2; 0.0094 μM, title MOI 0.6 (text MOI 1.3), Plate 2
  Inhibition: 5.994% and 7.809% and 12.95%
SARS-CoV2; 0.0188 μM, title MOI 0.6 (text MOI 1.3), Plate 1
  Inhibition: 4.894% and 1.871% and −1.054%
SARS-CoV2; 0.03 μM vs 1.4 μM
  fold better IC50 than GS-441524: 47 fold
SARS-CoV2; 0.0375 μM, MOI 0.2, Plate 2
  Inhibition: 31.89% and 46.61%
SARS-CoV2; 0.0375 μM, MOI 0.4, Plate 1
  Inhibition: 12.31% and 18.82%
SARS-CoV2; 0.0375 μM, MOI 0.6, Plate 1
  Inhibition: 27.4624% and 39.74% and 52.32%
SARS-CoV2; 0.0375 μM, MOI 0.6, Plate 2
  Inhibition: 59.38% and 43.5% and 83.02%
SARS-CoV2; 0.075 μM, MOI 0.2, Plate 1
  Inhibition: 81.55% and 79.85%
SARS-CoV2; 0.075 μM, MOI 0.2, Plate 2
  Inhibition: 88.5915% and 83.72% and 67.19%
SARS-CoV2; 0.075 μM, MOI 0.4, Plate 1
  Inhibition: 50.83% and 69.6% and 36.13%
SARS-CoV2; 0.075 μM, MOI 0.4, Plate 2
  Inhibition: 24.91% and 28.1512%
SARS-CoV2; 0.075 μM, MOI 0.6, Plate 1
  Inhibition: 98.66% and 98.3%
SARS-CoV2; 0.075 μM, MOI 0.6, Plate 2
  Inhibition: 97.59%
SARS-CoV2; 0.075 μM, title MOI 0.6 (text MOI 1.3), Plate 1
  Inhibition: 100.0792% and 80.42%
SARS-CoV2; 0.075 μM, title MOI 0.6 (text MOI 1.3), Plate 2
  Inhibition: 99.3891% and 97.8301%
SARS-CoV2; 0.15 μM, MOI 0.2, Plate 1
  Inhibition: 99.12% and 95.59%
SARS-CoV2; 0.15 μM, MOI 0.2, Plate 2
  Inhibition: 99.22%
SARS-CoV2; 0.15 μM, MOI 0.4, Plate 1
  Inhibition: 98.7% and 94.16%
SARS-CoV2; 0.15 μM, MOI 0.4, Plate 2
  Inhibition: 86.8%
SARS-CoV2; 0.15 μM, MOI 0.6, Plate 1
  Inhibition: 99.78% and 99.74%
SARS-CoV2; [9]
  Inhibition: 100.3795%
SARS-CoV2; 0.3 μM, MOI 0.2, Plate 1
  Inhibition: 99.69%
SARS-CoV2; 0.3 μM, MOI 0.2, Plate 2
  Inhibition: 99.99%
SARS-CoV2; 0.3 μM, MOI 0.4, Plate 1
  Inhibition: 99.72%
SARS-CoV2; 0.3 μM, MOI 0.6, Plate 1
  Inhibition: 85.36%
SARS-CoV2; [10]
  Inhibition: 97.59%
SARS-CoV2; 0.6 μM, MOI 0.2, Plate 1
  Inhibition: 99.15%
SARS-CoV2; 0.6 μM, MOI 0.6, Plate 2
  Inhibition: 96.04%
SARS-CoV2; Oya1 0.03 μM vs remdesivir 0.77 μM (Wang et al.)
  fold greater efficacy (IC50) than remdesivir: 25 fold
SARS-CoV2; Severe acute respiratory syndrome coronavirus 2, Vero C1008
  IC50: 30 nM
SARS-CoV2; Severe acute respiratory syndrome coronavirus 2, Vero C1008, 0.0047 μM, MOI 0.4, Plate 2
  inhibition at 0.0047 µM: 8.02%
SARS-CoV2; Severe acute respiratory syndrome coronavirus 2, Vero C1008, 0.0094 μM, MOI 0.4, Plate 2
  inhibition at 0.0094 µM: 15.2%
SARS-CoV2; Severe acute respiratory syndrome coronavirus 2, Vero C1008, 0.0188 μM, MOI 0.4, Plate 2
  inhibition at 0.0188 µM: 15.6%
SARS-CoV2; Severe acute respiratory syndrome coronavirus 2, Vero C1008, 0.0375 μM, MOI 0.4, Plate 1
  inhibition at 0.0375 µM: 10.9%
SARS-CoV2; MOI 0.2, Plate 1
  inhibition at 0.075 µM: 67.8%
  inhibition at 0.15 µM: 97.2%
  inhibition at 0.3 µM: 99.9%
  inhibition at 0.6 µM: 100%
SARS-CoV2; MOI 0.4, Plate 2
  inhibition at 0.075 µM: 19.8%
  inhibition at 0.15 µM: 83.4%
  inhibition at 0.3 µM: 91.4%
  inhibition at 0.6 µM: 67.4%
SARS-CoV2; MOI 0.2, Plate 2
  inhibition at 0.15 µM: 96%
  inhibition at 0.3 µM: 100%
  inhibition at 0.6 µM: 99.7%
SARS-CoV2; MOI 0.4, Plate 1
  inhibition at 0.15 µM: 95.9%
  inhibition at 0.3 µM: 96.9%
  inhibition at 0.6 µM: 100%
SARS-CoV2; MOI 0.6, Plate 1
  inhibition at 0.15 µM: 98.6%
  inhibition at 0.3 µM: 100%
  inhibition at 0.6 µM: 100%
SARS-CoV2; MOI 0.6, Plate 2
  inhibition at 0.15 µM: 99.7%
  inhibition at 0.3 µM: 100%
  inhibition at 0.6 µM: 99.7%
SARS-CoV2; [11]
  inhibition at 0.15 µM: 101%
  inhibition at 0.3 µM: 100%
  inhibition at 0.6 µM: 101%
SARS-CoV2; [12]
  inhibition at 0.15 µM: 101%
  inhibition at 0.3 µM: 101%
  inhibition at 0.6 µM: 101%
